The values that follow come from patent US5707976A, “Substituted propane-2-OL derivatives” (Richter Gedeon Vegyeszeti Gyar Rt., priority 1993, dated 1998).

One test deals with Candida albicans. As to the kind of experiment: Densitometric measurement of the propagation of yeast fungi (BIOSCREEN C), minimal inhibitory concentration. The format is cell-based. Particulars: for MIC: Candida albicans. The procedure: Densitometric measurement of the propagation of yeast fungi
A microbiological analyzer called BIOSCREEN C (LAB-SYSTEMS, Helsinki, Finland) was used to the measurements. From the test compounds first a stock solution of a concentration of 50 mg/ml, then in 15 steps a bisecting dilution series was prepared with dimethyl sulfoxide. From every dilution step 10 μl each was introduced into the cells of the analysator. Then 390 μl of an aqueous nutrient solution was piperred into the cells. In the mixtures obtained the cells of the yeasts, e.g. Candida albicans, cans, were suspended in such an amount that the optical density of the suspension obtained be about 0.1. Young cultures, shaken at 30° C. for about 12 hours, were used in the preparation of the suspensions. The composition of the aqueous nutrient solution was as follows: 1% by weight of glucose, 0.5% by weight of yeast extract (a product of the firm OXOID Ltd, Great Britain, under the catalogue No. L21) and 0.5% by weight of nutrient broth (a product of the firm OXOID Ltd, Great Britain, under the catalogue No. CM 1/2). The concentration of the compounds to be tested in the cells corresponded to 1250, 625, 312, 156, 78, 39, 19, 9, 4, 2, 1, 0.6, 0.3, 0.15 and 0.07 μg/ml, resp. The densitometric measurement of the cultures was carried out during an incubation at 37° C. for 30 hours. The change in the turbidity of the culture, which can be followed through optical measurement, is proportional to the propagation of the yeast fungi.
As the minimal inhibitory concentration (MIC) of this test that minimal concentration of the tested compound was determined which was able to prevent totally the propagation of the fungus.

In test [1] the test system is other Candida species and other pathogenic fungi. As to the kind of experiment: in vitro tests, full inhibition of other Candida species and other pathogenic fungi. It counts as cell-based. Particulars: read-out: dose of full inhibition. From the text: Mainly this resistant species causes the disease called "candidiasis" which is quite wide-spread and very difficult to influence.

[2] abbreviates: 30 h, read-out: MIC values of the individual tests.

Converted amounts (≈) assume the structure as drawn. Read-outs that look alike come from different tables or passages of the source.

Consider `C[Si](C)(C)OC(Cn1cncn1)(Cn1cncn1)c1ccc(F)cc1F` [Example 1, 2-(2,4-Difluorophenyl)-1,3-bis(1,2,4-triazol-1-yl)-2-(trimethylsilyloxy)propane], for which the MIC in the test with Candida albicans (setting [2]) was found to be 150 µg/mL (≈ 396 µM). For the same compound, the “effectiveness against Candida albicans compared with the active ingredient of fluconazole” value in the test with Candida albicans (factor missing in the printed text) is “times more effective”.

For the compound `C[Si](C)(C)OC(Cn1ccnc1)(Cn1cncn1)c1ccc(F)cc1F` (stereo not shown) [Example 3, 1-(Imidazol-1-yl)-2-(2,4-difluorophenyl)-3-(1,2,4-triazol-1-yl)-2-(trimethylsilyloxy) propane], the MIC in the test on Candida albicans (setting [2]) turned out to be 150 µg/mL (≈ 397 µM). Still for that read-out and setting: the figure for `C[Si](C)(C)OC(CCl)(Cn1cncn1)c1ccc(F)cc1F` (stereo not shown) [Example 5, 1-Chloro-2-(2,4-difluorophenyl)-3-(1,2,4-triazol-1-yl)-2-(trimethylsilyloxy) propane] is 9 µg/mL (≈ 26 µM); for `CC(Cn1cncn1)(O[Si](C)(C)C)c1ccc(F)cc1F` (stereo not shown) [Example 6, 2-(2,4-Difluorophenyl)-3-(1,2,4-triazol-1-yl)-2-(trimethylsilyloxy)propane] it is 150 µg/mL (≈ 482 µM). Consider `C[Si](C)(C)OC(CCl)(Cn1ccnc1)c1ccc(F)cc1F` (stereo not shown) [Example 8, 1-Chloro-2-(2,4-difluorophenyl)-3-(imidazol-1-yl)-2-(trimethylsilyloxy)propane], for which, in the test on Candida albicans (setting [2]), the MIC amounted to 19 µg/mL (≈ 55.1 µM). For the compound `OC(Cn1cncn1)(Cn1cncn1)c1ccc(F)cc1F` [fluconazole, 2-(2,4-difluorophenyl)-1,3-bis(1,2,4-triazol-1-yl)propane-2-ol, reference compound], the MIC in test [1] was 0.1 to 10 µg/mL (≈ 0.327 to 32.7 µM); in the test on Candida albicans (setting [2]), 2500 µg/mL (≈ 8160 µM); in the test with Candida albicans (in vitro, read-out: dose of full inhibition) it was 2500 µg/mL (≈ 8160 µM). The “effect against Candida albicans (in words)” value in the test with Candida albicans is “relatively weak effect”.
